{"source": "patent US9695155B2", "about": "“Herbicidal substituted pyrimidinyloxy benzene compounds” (E. I. DU PONT DE NEMOURS AND COMPANY, priority 2013, dated 2017)", "key": {"[1]": {"tested_on": "pigweed", "assay": "Test A preemergence", "format": "in vivo, Amaranthus retroflexus", "details": "0 to 100 scale where 0 is no effect and 100 is complete control", "outline": "(§1)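 Compounds in non-phytotoxic solvent with surfactant applied as soil spray preemergence, or postemergence to plants 2-10 cm at one- to two-leaf stage, in loam/sand. After approximately 10 days in greenhouse, injury rated visually versus untreated controls, 0 (no effect) to 100 (complete control).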"}, "[2]": {"tested_on": "pigweed", "assay": "Test A postemergence", "format": "in vivo, Amaranthus retroflexus", "details": "0 to 100 scale where 0 is no effect and 100 is complete control", "outline": "as §1"}, "[3]": {"tested_on": "corn", "assay": "Test A postemergence", "format": "in vivo, Zea mays", "details": "0 to 100 scale where 0 is no effect and 100 is complete control", "outline": "as §1"}, "[4]": {"tested_on": "Italian ryegrass", "assay": "Test C postemergence", "format": "in vivo, Lolium multiflorum", "details": "Lolium multiflorum, post-emergence", "outline": "(§2)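 Visual injury score versus untreated controls, 0 = no effect, 100 = complete control, taken 13 to 15 days after treatment in the greenhouse. Pre-emergence pots held loam/sand; post-emergence plants grew in sphagnum peat/vermiculite mix and were sprayed at the 1- to 4-leaf stage.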"}, "[5]": {"tested_on": "corn", "assay": "Test C postemergence", "format": "in vivo, Zea mays", "details": "Zea mays, post-emergence", "outline": "as §2"}, "[6]": {"tested_on": "giant foxtail", "assay": "Test C postemergence", "format": "in vivo, Setaria faberii", "details": "Setaria faberi, post-emergence", "outline": "as §2"}, "[7]": {"tested_on": "johnsongrass", "assay": "Test C postemergence", "format": "in vivo, Sorghum halepense", "details": "Sorghum halepense, post-emergence", "outline": "as §2"}, "[8]": {"tested_on": "pigweed", "assay": "Test C postemergence", "format": "in vivo, Amaranthus retroflexus", "details": "Amaranthus retroflexus, post-emergence", "outline": "as §2"}, "[9]": {"tested_on": "soybean", "assay": "Test C postemergence", "format": "in vivo, Glycine max", "details": "Glycine max, post-emergence", "outline": "as §2"}, "[10]": {"tested_on": "barnyardgrass", "assay": "Test C postemergence", "format": "in vivo, Echinochloa crus-galli", "details": "Echinochloa crus-galli, post-emergence", "outline": "as §2"}, "[11]": {"tested_on": "waterhemp", "assay": "Test C postemergence", "format": "in vivo, Amaranthus rudis", "details": "Amaranthus tuberculatus, post-emergence", "outline": "as §2"}, "[12]": {"tested_on": "kochia", "assay": "Test C postemergence", "format": "in vivo, Kochia scoparia", "details": "Bassia scoparia, post-emergence", "outline": "as §2"}, "[13]": {"tested_on": "wild oat", "assay": "Test C postemergence", "format": "in vivo, Avena fatua", "details": "Avena fatua, post-emergence", "outline": "as §2"}, "[14]": {"details": "Postemergence, 62 g ai/ha, scale 0 to 100 (0 no effect, 100 complete control)"}}, "data": [{"smiles": "N#Cc1cccc(Oc2ncc(Cl)cn2)c1-n1cc(SC(F)(F)F)cn1", "note": "[Compound 134, 3-[(5-chloro-2-pyrimidinyl)oxy]-2-[4-(trifluoromethylthio)-1-pyrazolyl]benzonitrile]", "values": [{"measurement": "Pigweed plant response rating", "setting": "[1]; 500 g ai/ha", "result": 100}, {"measurement": "pest or weed control at 125 g/ha", "setting": "[1]; Amaranthus retroflexus, pre-emergence, 125 g ai/ha, read-out: Plant response rating, Pigweed", "result": 100, "unit": "%"}, {"measurement": "Pigweed plant response rating", "setting": "[2]; 125 g ai/ha", "result": 100}, {"measurement": "Plant response rating, Pigweed", "setting": "[2]; 500 g ai/ha", "result": 100}, {"measurement": "Plant response rating, Corn", "setting": "[3]; 500 g ai/ha", "result": 60}, {"measurement": "plant injury at 125 g/ha", "setting": "[3]; Zea mays, post-emergence, 240 h, 125 g ai/ha, read-out: Corn plant response rating", "result": 40, "unit": "%"}, {"measurement": "pest or weed control at 16 g/ha", "setting": "[4]; 16 g ai/ha, postemergence, 0 is no effect, 100 is complete control, read-out: Plant response rating (0 to 100), Ryegrass, Italian", "result": 10, "unit": "%"}, {"measurement": "pest or weed control at 125 g/ha", "setting": "[4]; 125 g ai/ha, postemergence, visual rating, scale 0 to 100 (0 no effect, 100 complete control), read-out: Plant response rating, Ryegrass, Italian", "result": 0, "unit": "%"}, {"measurement": "pest or weed control at 62 g/ha", "setting": "[4]; Postemergence, 62 g ai/ha, scale 0 to 100 (0 no effect, 100 complete control), read-out: Plant response rating, Ryegrass, Italian", "result": 5, "unit": "%"}, {"measurement": "plant injury at 16 g/ha", "setting": "[5]; 16 g ai/ha, postemergence, 0 is no effect, 100 is complete control, read-out: Plant response rating (0 to 100), Corn", "result": 5, "unit": "%"}, {"measurement": "Corn plant response rating (crop injury, 0 = no effect, 100 = complete kill) at 125 g/ha", "setting": "[5]; 125 g ai/ha, postemergence, visual rating, scale 0 to 100 (0 no effect, 100 complete control)", "result": 5, "unit": "%"}, {"measurement": "Corn plant response rating (crop injury, 0 = no effect, 100 = complete kill) at 62 g/ha", "setting": "[5]; [14]", "result": 10, "unit": "%"}, {"measurement": "pest or weed control at 16 g/ha", "setting": "[6]; 16 g ai/ha, postemergence, 0 is no effect, 100 is complete control, read-out: Plant response rating (0 to 100), Foxtail, Giant", "result": 5, "unit": "%"}, {"measurement": "pest or weed control at 125 g/ha", "setting": "[6]; 125 g ai/ha, postemergence, visual rating, scale 0 to 100 (0 no effect, 100 complete control), read-out: Plant response rating, Foxtail, Giant", "result": 5, "unit": "%"}, {"measurement": "pest or weed control at 62 g/ha", "setting": "[6]; Postemergence, 62 g ai/ha, scale 0 to 100 (0 no effect, 100 complete control), read-out: Plant response rating, Foxtail, Giant", "result": 5, "unit": "%"}, {"measurement": "pest or weed control at 16 g/ha", "setting": "[7]; 16 g ai/ha, postemergence, 0 is no effect, 100 is complete control, read-out: Plant response rating (0 to 100), Johnsongrass", "result": 5, "unit": "%"}, {"measurement": "pest or weed control at 125 g/ha", "setting": "[7]; 125 g ai/ha, postemergence, visual rating, scale 0 to 100 (0 no effect, 100 complete control), read-out: Plant response rating, Johnsongrass", "result": 15, "unit": "%"}, {"measurement": "pest or weed control at 62 g/ha", "setting": "[7]; Postemergence, 62 g ai/ha, scale 0 to 100 (0 no effect, 100 complete control), read-out: Plant response rating, Johnsongrass", "result": 5, "unit": "%"}, {"measurement": "pest or weed control at 16 g/ha", "setting": "[8]; 16 g ai/ha, postemergence, 0 is no effect, 100 is complete control, read-out: Plant response rating (0 to 100), Pigweed", "result": 75, "unit": "%"}, {"measurement": "pest or weed control at 125 g/ha", "setting": "[8]; 125 g ai/ha, postemergence, visual rating, scale 0 to 100 (0 no effect, 100 complete control), read-out: Plant response rating, Pigweed", "result": 85, "unit": "%"}, {"measurement": "pest or weed control at 62 g/ha", "setting": "[8]; Postemergence, 62 g ai/ha, scale 0 to 100 (0 no effect, 100 complete control), read-out: Plant response rating, Pigweed", "result": 85, "unit": "%"}, {"measurement": "Soybean plant response rating (crop injury, 0-100 scale) at 16 g/ha", "setting": "[9]; 16 g ai/ha, postemergence, 0 is no effect, 100 is complete control", "result": 60, "unit": "%"}, {"measurement": "Soybean plant response rating (crop injury, 0-100 scale) at 125 g/ha", "setting": "[9]; 125 g ai/ha, postemergence, visual rating, scale 0 to 100 (0 no effect, 100 complete control), read-out: Plant response rating, Soybean", "result": 90, "unit": "%"}, {"measurement": "Soybean plant response rating (crop injury, 0-100 scale) at 62 g/ha", "setting": "[9]; [14]", "result": 65, "unit": "%"}, {"measurement": "pest or weed control at 16 g/ha", "setting": "[10]; 16 g ai/ha, postemergence, 0 is no effect, 100 is complete control, read-out: Plant response rating (0 to 100), Barnyardgrass", "result": 0, "unit": "%"}, {"measurement": "pest or weed control at 125 g/ha", "setting": "[10]; 125 g ai/ha, postemergence, visual rating, scale 0 to 100 (0 no effect, 100 complete control), read-out: Plant response rating, Barnyardgrass", "result": 10, "unit": "%"}, {"measurement": "pest or weed control at 31 g/ha", "setting": "[10]; Postemergence, 31 g ai/ha, scale 0 to 100 (0 no effect, 100 complete control), 13 to 15 days, read-out: Plant response rating, Barnyardgrass", "result": 5, "unit": "%"}, {"measurement": "pest or weed control at 62 g/ha", "setting": "[10]; Postemergence, 62 g ai/ha, scale 0 to 100 (0 no effect, 100 complete control), read-out: Plant response rating, Barnyardgrass", "result": 5, "unit": "%"}, {"measurement": "pest or weed control at 16 g/ha", "setting": "[11]; 16 g ai/ha, postemergence, 0 is no effect, 100 is complete control, read-out: Plant response rating (0 to 100), Waterhemp", "result": 55, "unit": "%"}, {"measurement": "pest or weed control at 125 g/ha", "setting": "[11]; 125 g ai/ha, postemergence, visual rating, scale 0 to 100 (0 no effect, 100 complete control), read-out: Plant response rating, Waterhemp", "result": 85, "unit": "%"}, {"measurement": "pest or weed control at 62 g/ha", "setting": "[11]; Postemergence, 62 g ai/ha, scale 0 to 100 (0 no effect, 100 complete control), read-out: Plant response rating, Waterhemp", "result": 60, "unit": "%"}, {"measurement": "pest or weed control at 16 g/ha", "setting": "[12]; 16 g ai/ha, postemergence, 0 is no effect, 100 is complete control, read-out: Plant response rating (0 to 100), Kochia", "result": 75, "unit": "%"}, {"measurement": "pest or weed control at 125 g/ha", "setting": "[12]; 125 g ai/ha, postemergence, visual rating, scale 0 to 100 (0 no effect, 100 complete control), read-out: Plant response rating, Kochia", "result": 95, "unit": "%"}, {"measurement": "pest or weed control at 62 g/ha", "setting": "[12]; Postemergence, 62 g ai/ha, scale 0 to 100 (0 no effect, 100 complete control), read-out: Plant response rating, Kochia", "result": 95, "unit": "%"}, {"measurement": "pest or weed control at 16 g/ha", "setting": "[13]; 16 g ai/ha, postemergence, 0 is no effect, 100 is complete control, read-out: Plant response rating (0 to 100), Oat, Wild", "result": 5, "unit": "%"}, {"measurement": "pest or weed control at 125 g/ha", "setting": "[13]; 125 g ai/ha, postemergence, visual rating, scale 0 to 100 (0 no effect, 100 complete control), read-out: Plant response rating, Oat, Wild", "result": 10, "unit": "%"}, {"measurement": "pest or weed control at 62 g/ha", "setting": "[13]; Postemergence, 62 g ai/ha, scale 0 to 100 (0 no effect, 100 complete control), read-out: Plant response rating, Oat, Wild", "result": 10, "unit": "%"}]}]}
